These results are taken from patent US8399478B2 (Vertex Pharmaceuticals Incorporated, priority 2006, dated 2013).

Some results are limits rather than exact numbers.

T1 sequence (P53350 20-338): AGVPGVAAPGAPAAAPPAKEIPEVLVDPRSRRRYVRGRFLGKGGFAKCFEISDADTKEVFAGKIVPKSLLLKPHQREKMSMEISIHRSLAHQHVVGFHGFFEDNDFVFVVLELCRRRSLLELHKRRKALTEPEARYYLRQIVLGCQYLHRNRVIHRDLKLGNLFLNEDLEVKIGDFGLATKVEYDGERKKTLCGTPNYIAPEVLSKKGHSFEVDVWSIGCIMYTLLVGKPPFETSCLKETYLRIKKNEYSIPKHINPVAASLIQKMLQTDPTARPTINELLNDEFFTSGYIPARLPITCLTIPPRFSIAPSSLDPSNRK

The assay concerns the target T1, Plk1 (Homo sapiens, UniProt P53350).
T1 construct: in the presence of 15 nM Plk1 (A20-K338)
As to the kind of experiment: Plk1 inhibition assay (radioactive-phosphate incorporation). The conditions noted are these: Ki(app) from initial rate data. The assay is classed as biochemical. On the procedure: The compounds of the present invention are evaluated as inhibitors of human PLK kinase using the following assays.
Compounds were screened for their ability to inhibit Plk1 using a radioactive-phosphate incorporation assay. Assays were carried out in a mixture of 25 mM HEPES (pH 7.5), 10 mM MgCl2, and 1 mM DTT. […] An assay stock buffer solution was prepared containing all of the reagents listed above, with the exception of ATP and the test compound of interest. […] The plate was pre-incubated for 10 minutes at 25° C. and the reaction initiated by addition of 8 μL [γ-33 P]ATP (final concentration 50 μM).
The reaction was stopped after 60 minutes by the addition of 100 μL 0.14M phosphoric acid. A multiscreen phosphocellulose filter 96-well plate (Millipore, Cat no. MAPHN0B50) was pretreated with 100 μL 0.2M phosphoric acid prior to the addition of 125 μL of the stopped assay mixture. The plate was washed with 4×200 μL 0.2M phosphoric acid.
After removing mean background values for all of the data points, Ki(app) data were calculated from non-linear regression analysis of the initial rate data using the Prism software package (GraphPad Prism version 3.0cx for Macintosh, GraphPad Software, San Diego, Calif., USA).
Compounds were screened for their ability to inhibit Plk1 using a radioactive-phosphate incorporation assay. Assays were carried out in a mixture of 25 mM HEPES (pH 7.5), 10 mM MgCl2, […], and 2 mM DTT. […] An assay stock buffer solution was prepared containing all of the reagents listed above, with the exception of ATP and the test compound of interest. […] The plate was pre-incubated for 10 minutes at 25° C. and the reaction initiated by addition of 8 μL [γ-33P]ATP (final concentration 100 μM).
The reaction was stopped after 90 minutes by the addition of 100 μL 0.14M phosphoric acid. A multiscreen phosphocellulose filter 96-well plate (Millipore, Cat no. MAPHN0B50) was pretreated with 100 μL 0.2M phosphoric acid prior to the addition of 125 μL of the stopped assay mixture. The plate was washed with 4×200 μL 0.2M phosphoric acid.
Consider `CC(Oc1cc(-c2cnn3ccccc23)sc1C(N)=O)c1ccccc1Cl` (stereo not shown) [Compound I-2, 3-[1-(2-Chloro-phenyl)-ethoxy]-5-pyrazolo[1,5-a]pyridin-3-yl-thiophene-2-carboxamide], for which the Ki is < 100 nM.

As to `COc1cnc2[nH]cc(-c3cc(OC(C)c4ccccc4Cl)c(C(N)=O)s3)c2c1` (stereo not shown) [Compound I-3, 3-[1-(2-Chloro-phenyl)-ethoxy]-5-(5-methoxy-1H-pyrrolo[2,3-b]pyridin-3-yl)-thiophene-2-carboxyamide], the Ki was < 100 nM.

For `CC(Oc1cc(-c2nnc3ccc(N)nn23)sc1C(N)=O)c1ccccc1Cl` (stereo not shown) [Compound I-4], the Ki is > 1000 nM.

With `CC(Oc1cc(-c2cnc3[nH]ccc3c2)sc1C(N)=O)c1ccccc1Cl` (stereo not shown) [Compound I-5, 3-[1-(2-Chloro-phenyl)-ethoxy]-5-(1H-pyrrolo[2,3-b]pyridin-5-yl)-thiophene-2-carboxamide], the Ki is 100 to 1000 nM.

In the case of `C=Cc1cnc2[nH]cc(-c3cc(OC(C)c4ccccc4Cl)c(C(N)=O)s3)c2c1` (stereo not shown) [Compound I-6, 3-(1-(2-chlorophenyl)ethoxy)-5-(5-vinyl-1H-pyrrolo[2,3-b]pyridin-3-yl)thiophene-2-carboxamide], the Ki is < 100 nM.

For `CNC(=O)c1ccc2ncc(-c3cc(OC(C)c4ccccc4Cl)c(C(N)=O)s3)n2c1` (stereo not shown) [Compound I-7, 3-(5-carbamoyl-4-(1-(2-chlorophenyl)ethoxy)thiophen-2-yl)-N-methylimidazo[1,2-a]pyridine-6-carboxamide], the Ki is < 100 nM.

For `CC(Oc1cc(-c2cnc3ccc(F)cn23)sc1C(N)=O)c1ccccc1Cl` (stereo not shown) [Compound I-8, 3-(1-(2-chlorophenyl)ethoxy)-5-(6-fluoroimidazo[1,2-a]pyridin-3-yl)thiophene-2-carboxamide], the Ki was < 100 nM.

Turning to `CC(Oc1cc(-c2cnc3cnccn23)sc1C(N)=O)c1ccccc1Cl` (stereo not shown) [Compound I-9], the Ki was < 100 nM.

As to `CC(Oc1cc(-c2cnc3ccc(C(F)(F)F)cn23)sc1C(N)=O)c1ccccc1Cl` (stereo not shown) [Compound I-10, 3-(1-(2-chlorophenyl)ethoxy)-5-(6-(trifluoromethyl)imidazo[1,2-a]pyridin-3-yl)thiophene-2-carboxamide], the Ki is < 100 nM.

`CNC(=O)c1ccn2c(-c3cc(OC(C)c4ccccc4Cl)c(C(N)=O)s3)cnc2c1` (stereo not shown) [Compound I-11, 3-(5-carbamoyl-4-(1-(2-chlorophenyl)ethoxy)thiophen-2-yl)-N-methylimidazo[1,2-a]pyridine-7-carboxamide]: the Ki is < 100 nM.

On to `CC(Oc1cc(-c2cnc3cccnn23)sc1C(N)=O)c1ccccc1Cl` (stereo not shown) [Compound I-12, 3-(1-(2-chlorophenyl)ethoxy)-5-(imidazo[1,2-b]pyridazin-3-yl)thiophene-2-carboxamide], for which the Ki is < 100 nM.

Turning to `CC(Oc1cc(-c2cnc3cc(C(F)(F)F)ccn23)sc1C(N)=O)c1ccccc1Cl` (stereo not shown) [Compound I-13, 3-(1-(2-chlorophenyl)ethoxy)-5-(7-(trifluoromethyl)imidazo[1,2-a]pyridin-3-yl)thiophene-2-carboxamide], the Ki is < 100 nM.

Consider `CCOC(=O)Nc1ccn2c(-c3cc(OC(C)c4ccccc4Cl)c(C(N)=O)s3)cnc2c1` (stereo not shown) [Compound I-14, Ethyl 3-(5-carbamoyl-4-(1-(2-chlorophenyl)ethoxy)thiophen-2-yl)imidazo[1,2-a]pyridin-7-ylcarbamate], for which the Ki was < 100 nM.

With `CC(Oc1cc(-c2cnc3cc(N)ccn23)sc1C(N)=O)c1ccccc1Cl` (stereo not shown) [Compound I-15, 5-(7-aminoimidazo[1,2-a]pyridin-3-yl)-3-(1-(2-chlorophenyl)ethoxy)thiophene-2-carboxamide], the Ki was < 100 nM.

As for `CNC(=O)c1sc(-c2cnc3ccccn23)cc1OC(C)c1ccccc1Cl` (stereo not shown) [Compound I-16, 3-(1-(2-chlorophenyl)ethoxy)-5-(imidazo[1,2-a]pyridin-3-yl)-N-methylthiophene-2-carboxamide], the Ki is > 1000 nM.

For `CCOC(=O)N(C)c1ccn2c(-c3cc(OC(C)c4ccccc4Cl)c(C(N)=O)s3)cnc2c1` (stereo not shown) [Compound I-17, Ethyl 3-(5-carbamoyl-4-(1-(2-chlorophenyl)ethoxy)thiophen-2-yl)imidazo[1,2-a]pyridin-7-yl(methyl)carbamate], the Ki is < 100 nM.

Turning to `COC(=O)N(C)c1ccn2c(-c3cc(OC(C)c4ccccc4Cl)c(C(N)=O)s3)cnc2c1` (stereo not shown) [Compound I-18, Methyl 3-(5-carbamoyl-4-(1-(2-chlorophenyl)ethoxy)thiophen-2-yl)imidazo[1,2-a]pyridin-7-yl(methyl)carbamate], the Ki is < 100 nM.

As for `COC(=O)Nc1ccn2c(-c3cc(O[C@@H](C)c4ccccc4Cl)c(C(N)=O)s3)cnc2c1` [Compound I-19, (S)-methyl 3-(5-carbamoyl-4-(1-(2-chlorophenyl)ethoxy)thiophen-2-yl)imidazo[1,2-a]pyridin-7-ylcarbamate], the Ki was < 100 nM.

On to `CCOC(=O)Nc1ccn2c(-c3cc(O[C@@H](C)c4ccccc4Cl)c(C(N)=O)s3)cnc2c1` [Compound I-20, (S)-ethyl 3-(5-carbamoyl-4-(1-(2-chlorophenyl)ethoxy)thiophen-2-yl)imidazo[1,2-a]pyridin-7-ylcarbamate], for which the Ki was < 100 nM.

In the case of `CC[C@H](Oc1cc(-c2cnc3cc(NC(=O)OC)ccn23)sc1C(N)=O)c1ccccc1Cl` [Compound I-21, (S)-methyl 3-(5-carbamoyl-4-(1-(2-chlorophenyl)propoxy)thiophen-2-yl)imidazo[1,2-a]pyridin-7-ylcarbamate], the Ki was < 100 nM.

`CCOC(=O)Nc1ccn2c(-c3cc(O[C@@H](CC)c4ccccc4Cl)c(C(N)=O)s3)cnc2c1` [Compound I-22, (S)-ethyl 3-(5-carbamoyl-4-(1-(2-chlorophenyl)propoxy)thiophen-2-yl)imidazo[1,2-a]pyridin-7-ylcarbamate]: the Ki was < 100 nM.

Regarding `CCOC(=O)Nc1ccn2c(-c3cc(OC(C)(C)c4ccccc4Cl)c(C(N)=O)s3)cnc2c1` [Compound I-25, Ethyl 3-(5-carbamoyl-4-(2-(2-chlorophenyl)propan-2-yloxy)thiophen-2-yl)imidazo[1,2-a]pyridin-7-ylcarbamate], the Ki is < 100 nM.
